Experiment [1] addresses Cyclin-dependent kinase 7 (Homo sapiens, UniProt P50613).
The next experiment deals with T1, dCTP pyrophosphatase 1 (Homo sapiens, UniProt Q9H773).
T1 sequence (Q9H773 whole entry): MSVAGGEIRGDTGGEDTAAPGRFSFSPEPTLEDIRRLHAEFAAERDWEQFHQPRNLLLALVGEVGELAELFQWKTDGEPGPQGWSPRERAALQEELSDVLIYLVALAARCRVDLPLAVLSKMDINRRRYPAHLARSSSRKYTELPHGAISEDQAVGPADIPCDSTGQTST

Experiment [2] deals with Protein kinase C alpha type (Homo sapiens, UniProt P17252).
The target of experiment [3] is Citron Rho-interacting kinase (Homo sapiens, UniProt O14578).
Experiment [4] has as its target Mitogen-activated protein kinase 1 (Homo sapiens, UniProt P28482).
In experiment [5] the target is Serine/threonine-protein kinase 16 (Homo sapiens, UniProt O75716).
Experiment [6] deals with Casein kinase I isoform alpha (Homo sapiens, UniProt P48729).
Experiment [7] has as its target S-adenosylmethionine synthase isoform type-2 (Homo sapiens, UniProt P31153).
The target in experiment [8] is Serine/threonine-protein kinase PAK 4 (Homo sapiens, UniProt O96013).
Experiment [9] addresses Mitogen-activated protein kinase 7 (Homo sapiens, UniProt Q13164).
In experiment [10] the target is T2, Membrane-associated tyrosine- and threonine-specific cdc2-inhibitory kinase (Homo sapiens, UniProt Q99640).
T2 sequence (Q99640 whole entry): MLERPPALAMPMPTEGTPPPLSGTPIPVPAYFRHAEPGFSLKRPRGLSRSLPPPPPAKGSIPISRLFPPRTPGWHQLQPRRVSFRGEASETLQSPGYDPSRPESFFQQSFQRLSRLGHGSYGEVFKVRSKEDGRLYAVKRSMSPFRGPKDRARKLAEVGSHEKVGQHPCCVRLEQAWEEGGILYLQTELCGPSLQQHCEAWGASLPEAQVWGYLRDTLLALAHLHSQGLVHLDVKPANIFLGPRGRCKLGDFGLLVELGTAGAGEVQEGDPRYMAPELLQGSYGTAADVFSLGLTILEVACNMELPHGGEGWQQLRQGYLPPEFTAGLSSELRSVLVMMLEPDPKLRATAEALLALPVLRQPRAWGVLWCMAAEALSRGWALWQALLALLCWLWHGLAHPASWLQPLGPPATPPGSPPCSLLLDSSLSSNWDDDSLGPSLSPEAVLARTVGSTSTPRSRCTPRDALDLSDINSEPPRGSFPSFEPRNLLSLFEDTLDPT

A further experiment concerns the target Insulin receptor (Homo sapiens, UniProt P06213).
The target in another experiment is T3, Septin-9 (Homo sapiens, UniProt Q9UHD8).
T3 sequence (Q9UHD8 whole entry): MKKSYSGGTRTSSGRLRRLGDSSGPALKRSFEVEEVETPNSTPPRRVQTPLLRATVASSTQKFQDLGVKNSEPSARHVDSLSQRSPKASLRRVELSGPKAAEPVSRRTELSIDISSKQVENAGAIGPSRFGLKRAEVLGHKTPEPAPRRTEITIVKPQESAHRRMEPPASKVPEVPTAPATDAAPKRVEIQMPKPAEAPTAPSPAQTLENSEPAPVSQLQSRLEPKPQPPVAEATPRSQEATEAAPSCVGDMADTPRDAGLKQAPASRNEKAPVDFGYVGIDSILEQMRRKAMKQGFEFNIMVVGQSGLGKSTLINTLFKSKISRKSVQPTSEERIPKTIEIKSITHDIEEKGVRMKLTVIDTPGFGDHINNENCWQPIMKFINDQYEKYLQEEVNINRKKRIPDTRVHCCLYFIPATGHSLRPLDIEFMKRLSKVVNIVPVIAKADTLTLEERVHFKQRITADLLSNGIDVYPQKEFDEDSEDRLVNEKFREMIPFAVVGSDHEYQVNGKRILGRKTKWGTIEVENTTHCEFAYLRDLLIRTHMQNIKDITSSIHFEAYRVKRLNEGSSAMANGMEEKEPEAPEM

Experiment [11] has as its target T4, Peroxisomal acyl-coenzyme A oxidase 3 (Homo sapiens, UniProt O15254).
T4 sequence (O15254 whole entry): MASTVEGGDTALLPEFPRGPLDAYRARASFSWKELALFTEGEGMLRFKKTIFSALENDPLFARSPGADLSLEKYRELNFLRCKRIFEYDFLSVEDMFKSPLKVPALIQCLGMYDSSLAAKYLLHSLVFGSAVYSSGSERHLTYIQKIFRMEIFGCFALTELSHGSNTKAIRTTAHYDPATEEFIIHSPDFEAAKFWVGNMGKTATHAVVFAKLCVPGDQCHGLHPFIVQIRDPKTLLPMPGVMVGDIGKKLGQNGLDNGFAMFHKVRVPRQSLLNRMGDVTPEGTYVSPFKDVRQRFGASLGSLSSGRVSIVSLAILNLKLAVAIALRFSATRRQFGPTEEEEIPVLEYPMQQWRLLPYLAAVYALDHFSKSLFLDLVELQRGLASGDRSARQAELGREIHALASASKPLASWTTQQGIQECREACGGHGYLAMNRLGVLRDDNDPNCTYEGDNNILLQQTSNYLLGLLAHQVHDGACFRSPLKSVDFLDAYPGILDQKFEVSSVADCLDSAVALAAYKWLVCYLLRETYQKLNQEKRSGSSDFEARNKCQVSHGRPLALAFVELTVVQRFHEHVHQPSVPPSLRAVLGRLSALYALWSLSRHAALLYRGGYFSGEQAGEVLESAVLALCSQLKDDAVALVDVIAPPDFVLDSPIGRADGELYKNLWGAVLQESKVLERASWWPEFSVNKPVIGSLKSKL

Active and inactive are the calls of the source.

Among the data in ChEMBL document CHEMBL3991601, “The target landscape of clinical kinase drugs” (Science, 2017) are Kd values, retold here.

A word on the Kd: it is a measure of binding affinity in units of concentration.
Note: in the data inactive means no Kd found up to 30 µM.

Chain of Casein kinase I isoform alpha (P48729 whole entry, canonical isoform): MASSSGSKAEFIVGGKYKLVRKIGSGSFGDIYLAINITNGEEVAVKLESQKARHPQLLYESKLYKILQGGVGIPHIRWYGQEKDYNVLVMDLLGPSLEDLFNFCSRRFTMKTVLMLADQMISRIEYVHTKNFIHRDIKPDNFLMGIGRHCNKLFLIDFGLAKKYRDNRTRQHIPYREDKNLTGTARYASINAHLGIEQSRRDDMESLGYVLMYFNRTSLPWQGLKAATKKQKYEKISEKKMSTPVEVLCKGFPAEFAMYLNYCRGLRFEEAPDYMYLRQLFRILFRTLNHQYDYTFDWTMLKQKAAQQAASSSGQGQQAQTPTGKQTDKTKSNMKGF
Chain of Mitogen-activated protein kinase 7 (Q13164 whole entry): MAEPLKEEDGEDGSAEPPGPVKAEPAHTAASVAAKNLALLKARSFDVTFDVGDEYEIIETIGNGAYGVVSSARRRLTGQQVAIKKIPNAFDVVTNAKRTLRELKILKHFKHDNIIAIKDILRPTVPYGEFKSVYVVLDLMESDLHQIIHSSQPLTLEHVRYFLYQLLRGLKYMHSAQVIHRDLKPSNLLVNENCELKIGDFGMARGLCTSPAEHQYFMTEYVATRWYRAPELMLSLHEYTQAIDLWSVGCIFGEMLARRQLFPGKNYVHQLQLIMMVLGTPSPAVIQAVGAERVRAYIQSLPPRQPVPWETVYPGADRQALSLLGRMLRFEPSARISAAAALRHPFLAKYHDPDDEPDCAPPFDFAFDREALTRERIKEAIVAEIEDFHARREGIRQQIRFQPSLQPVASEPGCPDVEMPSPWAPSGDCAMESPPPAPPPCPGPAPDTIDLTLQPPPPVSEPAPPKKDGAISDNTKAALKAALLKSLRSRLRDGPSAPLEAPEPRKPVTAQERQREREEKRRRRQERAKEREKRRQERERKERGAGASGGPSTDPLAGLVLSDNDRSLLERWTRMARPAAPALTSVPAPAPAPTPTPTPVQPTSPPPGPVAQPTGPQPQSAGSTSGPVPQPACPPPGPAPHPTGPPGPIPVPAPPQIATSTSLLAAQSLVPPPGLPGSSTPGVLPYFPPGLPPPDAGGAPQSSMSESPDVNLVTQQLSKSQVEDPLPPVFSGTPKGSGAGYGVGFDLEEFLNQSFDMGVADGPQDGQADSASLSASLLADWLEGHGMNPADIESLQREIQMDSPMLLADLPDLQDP
Chain of Cyclin-dependent kinase 7 (P50613 whole entry): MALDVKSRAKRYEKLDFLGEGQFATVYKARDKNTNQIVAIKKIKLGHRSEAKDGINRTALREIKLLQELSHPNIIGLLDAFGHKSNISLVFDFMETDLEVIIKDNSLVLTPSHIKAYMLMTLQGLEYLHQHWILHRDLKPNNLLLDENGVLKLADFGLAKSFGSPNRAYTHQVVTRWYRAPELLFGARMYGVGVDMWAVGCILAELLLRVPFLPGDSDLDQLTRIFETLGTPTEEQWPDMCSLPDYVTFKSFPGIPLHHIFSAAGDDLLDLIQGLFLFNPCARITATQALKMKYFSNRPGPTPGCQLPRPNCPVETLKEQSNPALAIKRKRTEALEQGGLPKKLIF
Chain of S-adenosylmethionine synthase isoform type-2 (P31153 whole entry, canonical isoform): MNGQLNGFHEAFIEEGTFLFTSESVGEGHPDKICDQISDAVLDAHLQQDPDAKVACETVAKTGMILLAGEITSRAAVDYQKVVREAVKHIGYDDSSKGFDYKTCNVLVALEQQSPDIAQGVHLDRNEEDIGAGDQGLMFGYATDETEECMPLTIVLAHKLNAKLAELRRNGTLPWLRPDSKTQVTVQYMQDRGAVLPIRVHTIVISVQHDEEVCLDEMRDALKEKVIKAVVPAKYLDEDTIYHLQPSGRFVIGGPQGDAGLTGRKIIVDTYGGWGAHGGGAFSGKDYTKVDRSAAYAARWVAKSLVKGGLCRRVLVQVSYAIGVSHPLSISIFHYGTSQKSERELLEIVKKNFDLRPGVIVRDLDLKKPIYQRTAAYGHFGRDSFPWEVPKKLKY
Chain of Citron Rho-interacting kinase (O14578 whole entry): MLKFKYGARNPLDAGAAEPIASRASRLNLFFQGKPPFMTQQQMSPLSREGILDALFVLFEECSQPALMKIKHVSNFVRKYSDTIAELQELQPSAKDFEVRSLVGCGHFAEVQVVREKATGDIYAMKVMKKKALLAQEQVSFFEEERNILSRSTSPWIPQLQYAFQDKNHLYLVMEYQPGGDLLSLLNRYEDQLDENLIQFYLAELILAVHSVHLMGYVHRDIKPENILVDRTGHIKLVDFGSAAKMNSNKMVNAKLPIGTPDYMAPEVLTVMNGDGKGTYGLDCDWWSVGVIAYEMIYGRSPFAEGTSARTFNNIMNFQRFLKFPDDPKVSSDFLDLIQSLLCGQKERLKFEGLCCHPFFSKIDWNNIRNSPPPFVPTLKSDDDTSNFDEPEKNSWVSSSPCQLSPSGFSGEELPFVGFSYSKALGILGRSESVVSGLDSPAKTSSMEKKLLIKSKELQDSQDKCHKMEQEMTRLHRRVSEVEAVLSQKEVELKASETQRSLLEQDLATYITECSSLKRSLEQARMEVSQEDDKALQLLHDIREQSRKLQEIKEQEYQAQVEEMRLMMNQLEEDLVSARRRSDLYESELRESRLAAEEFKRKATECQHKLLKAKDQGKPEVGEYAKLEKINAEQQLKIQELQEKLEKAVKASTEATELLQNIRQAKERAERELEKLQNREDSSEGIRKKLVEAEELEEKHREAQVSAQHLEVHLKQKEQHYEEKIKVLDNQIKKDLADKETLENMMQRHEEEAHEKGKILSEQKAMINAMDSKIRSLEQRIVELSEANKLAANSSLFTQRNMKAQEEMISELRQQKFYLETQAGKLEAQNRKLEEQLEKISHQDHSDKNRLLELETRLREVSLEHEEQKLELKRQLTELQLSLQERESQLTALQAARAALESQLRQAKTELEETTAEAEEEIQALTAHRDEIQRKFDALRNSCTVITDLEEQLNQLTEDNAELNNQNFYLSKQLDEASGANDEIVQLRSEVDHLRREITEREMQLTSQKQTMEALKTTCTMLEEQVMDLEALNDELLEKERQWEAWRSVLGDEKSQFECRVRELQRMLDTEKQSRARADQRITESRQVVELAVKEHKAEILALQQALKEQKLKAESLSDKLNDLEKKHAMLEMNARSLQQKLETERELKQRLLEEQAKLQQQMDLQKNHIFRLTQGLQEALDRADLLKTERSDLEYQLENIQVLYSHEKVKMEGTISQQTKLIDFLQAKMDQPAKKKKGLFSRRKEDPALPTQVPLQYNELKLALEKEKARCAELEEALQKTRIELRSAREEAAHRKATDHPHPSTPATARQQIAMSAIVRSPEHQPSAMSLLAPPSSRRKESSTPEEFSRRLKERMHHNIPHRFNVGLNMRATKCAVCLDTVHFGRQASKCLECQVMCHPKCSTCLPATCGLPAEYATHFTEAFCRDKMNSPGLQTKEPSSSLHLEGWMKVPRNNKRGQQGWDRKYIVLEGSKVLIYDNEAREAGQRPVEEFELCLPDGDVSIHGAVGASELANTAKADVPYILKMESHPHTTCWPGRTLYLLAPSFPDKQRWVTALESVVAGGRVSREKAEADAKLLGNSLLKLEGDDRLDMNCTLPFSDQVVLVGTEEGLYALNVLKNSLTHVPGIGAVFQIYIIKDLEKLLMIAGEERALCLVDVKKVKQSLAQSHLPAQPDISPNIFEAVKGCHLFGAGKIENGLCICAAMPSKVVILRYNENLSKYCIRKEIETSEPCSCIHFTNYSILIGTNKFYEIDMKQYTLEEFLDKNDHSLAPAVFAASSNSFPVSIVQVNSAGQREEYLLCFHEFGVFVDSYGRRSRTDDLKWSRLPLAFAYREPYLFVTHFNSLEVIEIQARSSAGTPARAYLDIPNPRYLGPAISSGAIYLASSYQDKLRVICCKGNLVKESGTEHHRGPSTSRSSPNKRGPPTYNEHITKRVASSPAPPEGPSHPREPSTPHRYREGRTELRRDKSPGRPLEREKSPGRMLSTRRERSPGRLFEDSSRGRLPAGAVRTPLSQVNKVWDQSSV
Chain of Serine/threonine-protein kinase 16 (O75716 whole entry, canonical isoform): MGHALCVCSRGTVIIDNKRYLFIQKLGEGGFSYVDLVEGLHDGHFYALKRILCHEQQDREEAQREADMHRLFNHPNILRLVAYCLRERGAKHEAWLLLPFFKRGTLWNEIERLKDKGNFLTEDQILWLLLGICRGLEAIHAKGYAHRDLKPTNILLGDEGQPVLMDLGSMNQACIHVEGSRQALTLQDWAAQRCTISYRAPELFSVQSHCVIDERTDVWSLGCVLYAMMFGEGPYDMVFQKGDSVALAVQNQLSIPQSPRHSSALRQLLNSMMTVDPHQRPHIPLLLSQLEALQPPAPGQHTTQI

As for `CCc1cc2c(cc1N1CCC(N3CCOCC3)CC1)C(C)(C)c1[nH]c3cc(C#N)ccc3c1C2=O` [ALECTINIB], the Kd (in [1]; at dCTP pyrophosphatase 1; in [2]; in experiment [3]; in experiment [4]; in experiment [5]) was > 30 µM (inactive) each time. Further, the Kd (in [6]; in experiment [7]; in experiment [8]; in experiment [9]; in experiment [10]; on Insulin receptor) was > 30 µM (inactive) each time. The Kd on Septin-9 is > 30 µM (inactive); in experiment [11], 2.6 µM (active).
As for `C#Cc1cccc(Nc2ncnc3cc4c(cc23)OCCOCCOCCO4)c1` [ICOTINIB], the Kd (in experiment [1]; at dCTP pyrophosphatase 1; in experiment [2]; in [3]; in experiment [4]; in [5]) was > 30 µM (inactive) in each case. Besides, the Kd (in experiment [6]; in experiment [7]; in [8]; in experiment [9]; in experiment [10]; at Insulin receptor) was > 30 µM (inactive) throughout. For the same compound, the Kd (on Septin-9; in [11]) was > 30 µM (inactive) throughout.
For `Cn1c(=O)c(F)c(Nc2ccc(I)cc2F)c2c(=O)n(C[C@@H](O)CO)cnc21` [TAK-733], the Kd (in [1]; at dCTP pyrophosphatase 1; in experiment [2]; in experiment [3]; in experiment [4]; in experiment [5]) was > 30 µM (inactive) throughout. The Kd (in experiment [6]; in experiment [7]; in experiment [8]; in experiment [9]; in experiment [10]; at Insulin receptor) was > 30 µM (inactive) each time. Besides, the Kd (on Septin-9; in experiment [11]) was > 30 µM (inactive) in each case.
Regarding `COc1cc2ncnc3c2cc1OCCCCCN(C)Cc1ccc(Br)cc1N3` [JNJ-26483327], the Kd (in experiment [1]; at dCTP pyrophosphatase 1; in experiment [2]; in experiment [3]; in experiment [4]; in experiment [5]) was > 30 µM (inactive) each time. In addition, the Kd (in experiment [6]; in experiment [7]; in experiment [8]; in experiment [9]; in experiment [10]; on Insulin receptor) was > 30 µM (inactive) throughout. For the same compound, the Kd (on Septin-9; in experiment [11]) was > 30 µM (inactive) in each case.
On to `COc1ccc2c(OCc3nnc4ccc(-c5ccccc5)nn34)ccnc2c1` [AMG-208], for which the Kd (in experiment [1]; at dCTP pyrophosphatase 1; in [2]; in experiment [3]; in experiment [4]; in experiment [5]) was > 30 µM (inactive) in each case. Further, the Kd (in experiment [6]; in experiment [7]; in experiment [8]; in experiment [9]; in experiment [10]; at Insulin receptor) was > 30 µM (inactive) each time. Also, the Kd (at Septin-9; in experiment [11]) was > 30 µM (inactive) each time.
In the case of `Cc1cc(-c2cc(OC(=O)c3ccccc3)ccc2Cl)cc2nnc(Nc3ccc(OCCN4CCCC4)cc3)nc12` [TG100-801], the Kd (in experiment [1]; at dCTP pyrophosphatase 1; in [2]; in experiment [3]; in [4]; in [5]) was > 30 µM (inactive) each time. The Kd (in experiment [6]; in experiment [7]; in experiment [8]; in experiment [9]; in experiment [10]; on Insulin receptor) was > 30 µM (inactive) in each case. For the same compound, the Kd (at Septin-9; in experiment [11]) was > 30 µM (inactive) in each case.
On to `O=C(NC[C@H](O)CO)c1ccncc1Nc1ccc(I)cc1F` [PIMASERTIB], for which the Kd (in experiment [1]; on dCTP pyrophosphatase 1; in experiment [2]; in experiment [3]; in [4]; in experiment [5]) was > 30 µM (inactive) each time. Moreover, the Kd (in experiment [6]; in experiment [7]; in [8]; in experiment [9]; in experiment [10]; on Insulin receptor) was > 30 µM (inactive) throughout. The Kd (on Septin-9; in [11]) was > 30 µM (inactive) each time.
Regarding `c1cc(OCCN2CCCCC2)cc(-c2n[nH]c3ccc(-c4nc[nH]n4)cc23)c1` [CC-401], the Kd (in experiment [1]; on dCTP pyrophosphatase 1; in [2]; in experiment [3]; in [4]; in [5]) was > 30 µM (inactive) throughout. For the same compound, the Kd in experiment [6] is 5.16 µM (active); in experiment [7], > 30 µM (inactive); in experiment [8], > 30 µM (inactive); in experiment [9] it was > 30 µM (inactive); in experiment [10], > 30 µM (inactive); on Insulin receptor, > 30 µM (inactive). In addition, the Kd (at Septin-9; in [11]) was > 30 µM (inactive) in each case.
Turning to `NC(=O)c1ccc(N(C(N)=O)c2c(F)cccc2F)nc1-c1ccc(F)cc1F` [VX-702], the Kd (in [1]; at dCTP pyrophosphatase 1; in experiment [2]; in experiment [3]; in [4]; in experiment [5]) was > 30 µM (inactive) in each case. The Kd (in [6]; in experiment [7]; in [8]; in experiment [9]; in experiment [10]; on Insulin receptor) was > 30 µM (inactive) in each case. Further, the Kd (on Septin-9; in experiment [11]) was > 30 µM (inactive) each time.
